Experimental data: US6867192B1, “Compounds useful in the treatment of inflammatory diseases” (priority 1998, dated 2005)

test system: not listed separately; assay: Solubility in water; format: physicochemical; details: not given

Structure (SMILES)	solubility
Cc1ccccc1OCC(=O)N[C@@H](CC(C)C)C(=O)N[C@@H](Cc1ccc(OC(=O)N2CCC(C(N)=O)CC2)cc1)C(=O)[O-].[K+] [Example 27A, (2S)-3-[4-({[4-(Aminocarbonyl)-1-piperidinyl]carbonyl}oxy)phenyl]-2-[((2S)-4-methyl-2-{[2-(2-methylphenoxy)acetyl]amino}pentanoyl)amino]propanoic acid potassium salt]	> 250 mg/mL

molecular target: T1, integrin VLA-4, expressed on the Jurkat J6 (human lymphoblast cell line) cell membrane with VCAM-1 (Homo sapiens, UniProt P05556+P13612); assay: Jurkat J6/VCAM-1 adhesion assay; format: cell-based; details: Jurkat J6 cell adhesion to VCAM-1, 1 mM MnCl2; mean of n experiments
T1 construct: integrin VLA-4, expressed on the Jurkat J6 (human lymphoblast cell line) cell membrane; endogenous in cells; host or cells: Jurkat J6 cells (integrin). zzVCAM-1 was made in house in Drosophila melanogaster S2 cells
Description: (1) Jurkat J6/VCAM-1 Adhesion Assay
This assay was used to investigate the interaction of the integrin VLA-4, expressed on the Jurkat J6 (human lymphoblast cell line) cell membrane with VCAM-1. Polystyrene 96-well microtitre plates were coated with human immunoglobulin G (IgG; Sigma Chemicals, UK, Product No. 14506) at a concentration of 0.05 mg ml^−1 in bicarbonate buffer (36 mM NaHCO3 and 22 mM Na2CO3, prepared in Dulbecco's phosphate buffered saline at pH 9.8 (PBS); Sigma Chemicals, UK, Product No. 14190-094) for 2 hours at 37° C. This solution was then aspirated and the plates were washed twice with PBS.
VCAM-1 was prepared by cloning its constituent seven domains into a Drosophila expression system with a zz (Protein A) tag. This zzVCAM-1 was then expressed from Drosophila melanogaster S2 cell culture, induced with copper. Protease inhibitors were added and the culture supernatant was clarified either by filtration through a 0.2 μm filter or by centrifugation. The zzVCAM-1 was then purified from this clarified medium using an IgG agarose column, equilibrated with either 20 mM sodium phosphate pH 7.2 alone or in the presence of 0.5M sodium chloride. Elution of zzVCAM-1 from the column was mediated using 3M ammonium thiocyanate, which was subsequently removed using a G25 desalting column, equilibrated with 20 mM sodium phosphate, pH 7.2. The purified zzVCAM-1 was then concentrated to a small volume (Amicon stirred cell concentrators) until a concentration of 62.5 ng ml^−1 was obtained, calculated using the extinction coefficient value.
This solution of zzVCAM-1 was then incubated overnight at 4° C. in the IgG coated microtitre plates with 3% bovine serum albumin (BSA) in PBS, followed by aspiration and two further washes with PBS. A concentration of the Jurkat J6 cells (6×10^6 cels ml^−1), grown in cell media RPMI 1640 (HyClone Ltd, Product No. B-9106-L) supplemented with 10% heat inactivated fetal calf serum (FCS; Gibco BRL, Product No. 10099-075) and 2 mM L-glutamine, were labelled with 10 μM of the fluorescent dye, 2′, 7′-bis(2-carboxyethyl)-5-(e6)-carboxyfluorescein acetoxymethyl ester (BCECF-AM; Molecular Probes Inc, Product No. B-1150) at 37° C. for 10 minutes. The excess dye was then removed by centrifugation at 500×g for 5 minutes and the cells were resuspended at a concentration of 1.2×10^7 cells ml^−1 in Hank's balanced salt solution (HBSS; Gibco BRL, Product No. 14190-094).
Equal volumes of compounds (dissolved in an appropriate solvent and diluted in HBSS containing 1 mM MnCl2) and the labelled Jurkat J6 cells, were added to the VCAM-1 coated plates and adhesion was allowed to proceed for 30 minutes at 37° C. Non, or loosely adhered cells, were removed by inversion of the plate and blotted with tissue paper. Two washes with PBS and further blotting were then performed, before the addition of 2% detergent (Triton-X®; Sigma Chemicals UK, Product No. X100). Counting was undertaken in a Wallac Viktor™ Fluorimeter, where low fluorescence values were indicative of compounds which had inhibited adhesion. All samples were assayed in singlicate and the following four parameter curve fit, shown by Equation (I) was applied: [formula]
Where a is the minimum, b is the Hill slope, c is the IC50 and d is the maximum. (Maximum and minimum values are those compared to adhesion in the absence of compound and in the presence of the dipotassium salt of 2 mM EDTA; Sigma Chemicals, UK, Product No. ED2P). Data is presented as the mean pIC50 with the standard error of the mean of n experiments.

T1 sequence (P13612 34-1032): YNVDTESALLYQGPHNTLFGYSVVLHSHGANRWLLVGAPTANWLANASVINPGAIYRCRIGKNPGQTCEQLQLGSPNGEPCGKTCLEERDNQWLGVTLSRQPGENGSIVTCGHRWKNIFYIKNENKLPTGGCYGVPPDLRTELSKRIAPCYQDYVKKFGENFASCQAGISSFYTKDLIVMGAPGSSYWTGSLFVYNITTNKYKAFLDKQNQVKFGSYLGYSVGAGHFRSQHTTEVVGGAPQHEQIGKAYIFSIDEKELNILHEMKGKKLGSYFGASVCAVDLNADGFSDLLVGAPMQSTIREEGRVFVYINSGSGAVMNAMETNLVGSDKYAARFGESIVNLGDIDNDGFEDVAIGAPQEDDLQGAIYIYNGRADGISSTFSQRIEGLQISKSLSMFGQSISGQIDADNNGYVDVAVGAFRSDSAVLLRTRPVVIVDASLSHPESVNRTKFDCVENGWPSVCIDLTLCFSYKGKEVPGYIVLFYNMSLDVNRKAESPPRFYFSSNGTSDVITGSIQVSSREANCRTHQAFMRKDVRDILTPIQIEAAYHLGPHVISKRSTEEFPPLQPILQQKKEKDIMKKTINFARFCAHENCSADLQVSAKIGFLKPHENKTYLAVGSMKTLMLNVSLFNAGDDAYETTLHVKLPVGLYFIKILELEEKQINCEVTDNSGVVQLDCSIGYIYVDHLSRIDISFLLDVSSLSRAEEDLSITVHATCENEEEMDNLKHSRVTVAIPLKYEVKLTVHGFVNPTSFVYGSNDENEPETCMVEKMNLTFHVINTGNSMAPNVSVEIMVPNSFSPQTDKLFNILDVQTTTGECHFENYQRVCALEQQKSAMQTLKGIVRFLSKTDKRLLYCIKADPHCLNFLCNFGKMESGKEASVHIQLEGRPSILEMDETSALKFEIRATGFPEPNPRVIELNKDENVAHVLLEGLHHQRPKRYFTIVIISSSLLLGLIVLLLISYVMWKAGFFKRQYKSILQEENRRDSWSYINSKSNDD
T1 sequence (P05556 21-798): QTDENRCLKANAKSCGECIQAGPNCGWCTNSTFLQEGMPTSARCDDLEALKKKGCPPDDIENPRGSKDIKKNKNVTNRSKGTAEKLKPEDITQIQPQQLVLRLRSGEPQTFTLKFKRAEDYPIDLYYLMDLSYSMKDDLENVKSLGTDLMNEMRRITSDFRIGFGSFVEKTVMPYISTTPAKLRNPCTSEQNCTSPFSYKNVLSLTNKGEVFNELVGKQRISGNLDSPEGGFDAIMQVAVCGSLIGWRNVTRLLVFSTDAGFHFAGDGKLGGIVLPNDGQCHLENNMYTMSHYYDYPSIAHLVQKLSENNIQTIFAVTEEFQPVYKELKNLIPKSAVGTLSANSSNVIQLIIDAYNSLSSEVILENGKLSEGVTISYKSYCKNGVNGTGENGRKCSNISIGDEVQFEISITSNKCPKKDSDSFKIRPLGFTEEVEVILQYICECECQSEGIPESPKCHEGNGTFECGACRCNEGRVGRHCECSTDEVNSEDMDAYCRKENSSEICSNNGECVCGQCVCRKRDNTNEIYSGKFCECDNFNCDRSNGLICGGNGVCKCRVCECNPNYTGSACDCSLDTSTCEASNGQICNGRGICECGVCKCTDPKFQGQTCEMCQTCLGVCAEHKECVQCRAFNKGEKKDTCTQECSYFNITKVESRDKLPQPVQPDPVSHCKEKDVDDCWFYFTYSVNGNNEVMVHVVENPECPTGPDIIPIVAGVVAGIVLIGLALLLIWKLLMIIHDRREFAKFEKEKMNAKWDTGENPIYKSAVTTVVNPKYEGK

Structure (SMILES)	IC50
CC(C)C[C@H](NC(=O)COc1ccccc1C1CCCCC1)C(=O)N[C@@H](Cc1ccc(OC(=O)N2CCC(NC(=O)Cc3ccc(Cl)cc3)CC2)cc1)C(=O)O [Example 45, (2S)-3-(4-{[(4-{[2-(4-Chlorophenyl)acetyl]amino}-1-piperidinyl)carbonyl]oxy}phenyl)-2-[((2S)-2-{[2-(2-cyclohexylphenoxy)acetyl]amino}-4-methylpentanoyl)amino]propanoic acid]	57.5 nM
CC(C)C[C@H](NC(=O)COc1ccccc1C(=O)c1ccccc1)C(=O)N[C@@H](Cc1ccc(OC(=O)N2CCC(NC(=O)Cc3ccc(Cl)cc3)CC2)cc1)C(=O)O [Example 46, (2S)-2-[((2S)-2-{[2-(2-Benzoylphenoxy)acetyl]amino}-4-methylpentanoyl)amino]-3-(4-{[(4-{[2-(4-chlorophenyl)acetyl]amino}-1-piperidinyl)carbonyl]oxy}phenyl)propanoic acid]	43.7 nM
CC(C)C[C@H](NC(=O)COc1ccccc1I)C(=O)N[C@@H](Cc1ccc(OC(=O)N2CCC(NC(=O)Cc3ccc(Cl)cc3)CC2)cc1)C(=O)O [Example 47, (2S)-3-(4-{[(4-{[2-(4-Chlorophenyl)acetyl]amino}-1-piperidinyl)carbonyl]oxy}phenyl)-2-[((2S)-2-{[2-(2-iodophenoxy)acetyl]amino}-4-methylpentanoyl)amino]propanoic acid]	33.1 nM
CC(C)C[C@H](NC(=O)COc1ccccc1C(C)(C)C)C(=O)N[C@@H](Cc1ccc(OC(=O)N2CCC(NC(=O)Cc3ccc(Cl)cc3)CC2)cc1)C(=O)O [Example 48, (2S)-2-{[(2S)-2-({2-[2-(Tert-butyl)phenoxy]acetyl}amino)-4-methylpentanoyl]amino}-3-(4-{[(4-{[2-(4-chlorophenyl)acetyl]amino}-1-piperidinyl)carbonyl]oxy}phenyl)propanoic acid]	41.7 nM
CC(C)C[C@H](NC(=O)c1cccc2c1oc1ccccc12)C(=O)N[C@@H](Cc1ccc(OC(=O)N2CCC(NC(=O)Cc3ccc(Cl)cc3)CC2)cc1)C(=O)O [Example 49, (2S)-3-(4-{[(4-{[2-(4-Chlorophenyl)acetyl]amino}-1-piperidinyl)carbonyl]oxy}phenyl)-2-({(2S)-2-[(dibenzo[b,d]furan-4-ylcarbonyl)amino]-4-methylpentanoyl}amino)propanoic acid]	44.7 nM
CC(C)C[C@H](NC(=O)COc1cc2ccccc2cc1C(=O)N1CCCCC1)C(=O)N[C@@H](Cc1ccc(OC(=O)N2CCC(NC(=O)Cc3ccc(Cl)cc3)CC2)cc1)C(=O)O [Example 50, (2S)-3-(4-{[(4-{[2-(4-Chlorophenyl)acetyl]amino}-1-piperidinyl)carbonyl]oxy}phenyl)-2-({(2S)-4-methyl-2-[(2-{[3-(1-piperidinylcarbonyl)-2-naphthyl]oxy}acetyl)amino]pentanoyl}amino)propanoic acid]	25.1 nM
CC(C)C[C@H](NC(=O)COc1ccccc1C(C)(C)C)C(=O)N[C@@H](Cc1ccc(OC(=O)N2CCC(NC(=O)Cc3ccccc3)CC2)cc1)C(=O)O [Example 51, (2S)-2-{[(2S)-2-({2-[2-(Tert-butyl)phenoxy]acetyl}amino)-4-methylpentanoyl]amino}-3-{4-[({4-[(2-phenylacetyl)amino]-1-piperidinyl}carbonyl)oxy]phenyl}propanoic acid]	13.8 nM
CC(C)C[C@H](NC(=O)COc1ccccc1C(C)(C)C)C(=O)N[C@@H](Cc1ccc(OC(=O)N2CCC(NC(=O)CC3CCCCC3)CC2)cc1)C(=O)O [Example 52, (2S)-2-{[(2S)-2-({2-[2-(Tert-butyl)phenoxy]acetyl}amino)-4-methylpentanoyl]amino}-3-{4-[({4-[(2-cyclohexylacetyl)amino]-1-piperidinyl}carbonyl)oxy]phenyl}propanoic acid]	33.1 nM
CC(C)C[C@H](NC(=O)COc1ccccc1C(C)(C)C)C(=O)N[C@@H](Cc1ccc(OC(=O)N2CCC(NC(=O)C(C3CCCCC3)C3CCCCC3)CC2)cc1)C(=O)O [Example 53, (2S)-2-{[(2S)-2-({2-[2-(Tert-butyl)phenoxy]acetyl}amino)-4-methylpentanoyl]amino}-3-{4-[({4-[(2,2-dicyclohexylacetyl)amino]-1-piperidinyl}carbonyl)oxy]phenyl}propanoic acid]	155 nM
Cc1ccccc1OCC(=O)N[C@@H](CC(C)C)C(=O)N[C@@H](Cc1ccc(OC(=O)N2CCC(NC(=O)Cc3ccccc3)CC2)cc1)C(=O)O [Example 54, (2S)-2-[((2S)-4-Methyl-2-{[2-(2-methylphenoxy)acetyl]amino}pentanoyl)amino]-3-{4-[({4-[(2-phenylacetyl)amino]-1-piperidinyl}carbonyl)oxy]phenyl}propanoic acid]	5.62 nM
CC(C)C[C@H](NC(=O)COc1ccccc1C1CCCCC1)C(=O)N[C@@H](Cc1ccc(OC(=O)N2CCC(NC(=O)Cc3ccccc3)CC2)cc1)C(=O)O [Example 55, (2S)-2-[((2S)-2-{[2-(2-Cyclohexylphenoxy)acetyl]amino}-4-methylpentanoyl)amino]-3-{4-[({4-[(2-phenylacetyl)amino]-1-piperidinyl}carbonyl)oxy]phenyl}propanoic acid]	61.7 nM
CC(C)C[C@H](NC(=O)COc1ccccc1C1CCCCC1)C(=O)N[C@@H](Cc1ccc(OC(=O)N2CCC(NC(=O)CC3CCCCC3)CC2)cc1)C(=O)O [Example 56, (2S)-3-{4-[({4-[(2-Cyclohexylacetyl)amino]-1-piperidinyl}carbonyl)oxy]phenyl}-2-[((2S)-2-{[2-(2-cyclohexylphenoxy)acetyl]amino}-4-methylpentanoyl)amino]propanoic acid]	87.1 nM

test system: ovalbumin sensitised guinea pigs; assay: Inhibition of eosinophil infiltration and hyper-reactivity in the guinea pig; format: in vivo; details: Cavia porcellus, Eosinophil, inhaled or nasal, 24 h, dose 200 μg/kg body weight i.t., positive control, airway hyper-reactivity to U46619
Description: (3) Inhibition of Eosinophil Infiltration and Hyper-Reactivity in the Guinea Pig
In a method based on that described by Danahay et al., 1997, ovalbumin sensitised guinea pigs were dosed with mepyramine (30 mg kg^−1 ip) to protect against anaphylactic bronchospasm. Test compounds, dissolved in 0.9% saline, were given by the inhaled route (30 minutes breathing of an aerosol of the compound) or the intra-tracheal route, 30 minutes before and 6 hours after ovalbumin challenge (10 minutes breathing of an aerosol generated from a 0.5% solution of ovalbumin). Hyper-reactivity of the airways to the thromboxane mimetic U46619, was measured 24 hours after ovalbumin challenge in un-restrained animals using a whole body plethysmograph (Buxco Ltd., USA). The guinea pigs were then sacrificed and the lungs lavaged. Total and differential leukocyte counts were then obtained for the bronchoalveolar lavage fluid and the percentage reduction in eosinophil accumulation determined (Sanjar et al., 1992). Dexamethasone (200 μg kg^−1 i.t) was used as a positive control. Data was presented as the inhibitory effect of the specified dose expressed as a percentage of the vehicle control response.

Structure (SMILES)	inhibition in vivo at 0.2 mg/kg
C[C@@H]1C[C@H]2[C@@H]3CCC4=CC(=O)C=C[C@]4(C)[C@@]3(F)[C@@H](O)C[C@]2(C)[C@@]1(O)C(=O)CO [Dexamethasone, reference compound]	80%

same assay, conditions: dose 200 μg/kg body weight i.t., positive control

Structure (SMILES)	% Inhibition Eosinophil Accumulation
C[C@@H]1C[C@H]2[C@@H]3CCC4=CC(=O)C=C[C@]4(C)[C@@]3(F)[C@@H](O)C[C@]2(C)[C@@]1(O)C(=O)CO [Dexamethasone, reference compound]	55%
